Measured values as given in patent publication US8889724B2, “Tetrazole compounds for reducing uric acid” (Wellstat Therapeutics Corporation, priority 2008, dated 2014).
Several values for one entry are separate records, joined by “and”; a condition that tells them apart may be missing. Identical values can stand only once. Like-named read-outs stand apart in the source and are kept apart here.

Assay: Mouse oral single-dose pharmacokinetic study with Compound EB
Format: in vivo
Details: 100 mg/kg single oral gavage
Experimental: Mouse Oral Single-Dose Pharmacokinetic Study with Compound EB
Determination of the Plasma profile of Compound EB following single oral gavage administration to male mice:
Test compounds were suspended in 1% HPMC using a tissue homogenizer to minimize particles and maximize uniformity of the suspension and stored at 4° C. The formulations was thoroughly mixed just prior to administration. A dose of 100 mg/kg of Compound EB or vehicle (1% HPMC) was administered to male mice by single oral gavage. Mice were placed in urine collectors after dosing for 5 hours, and the total urine output for 5 hours was collected. Samples were frozen at −80° C. until analyzed using LC/MS-MS.
At 0, 0.5, 1, 2, 4, 6, 8 and 24 hours post-dose time points, blood samples (0.4 mL) were collected by orbital sinus bleeds in K3EDTA tubes. The blood samples were centrifuged within 30 minutes of collection under refrigeration (2-8° C.) for 7 minutes at 6000 rpm. Following centrifugation, the plasma were harvested into a single tube for each animal at each time point and immediately frozen at −80° C. until analyzed using LC/MS-MS. Data was subjected to pharmacokinetic analyses using WinNonlin Standard (v2.1, Pharsight Corporation) and Microsoft EXCEL.
1. Mice received single oral gavage of Compound EB, 100 mg/kg, and plasma was collected at certain times.
2. Plasma was stored at −80° C. until the day of analysis.
3. Samples were thawed on 37° C. bath for 5 min and vortexed at top speed for 10 sec.
4. Mouse plasma, 0.1 mL was mixed with 0.2 mL Acetonitrile, vortexed 1 min, spun down 14000 rpm, 17000 g, at 4° C., for 25 min.
5. Supernatants were filtered through 0.45 micron, 4 mm, PTFE membrane syringe filter (Phenomenex # AF0-3102-52), and 13 microL were injected and resolved on Luna 3 micron, 100 A pore, C8(2), 150×3 mm, reverse phase column (Phenomenex#00F-4248-YO, SN#259151-7) in 50 min linear gradient from 40% to 69% of (0.1% Formic Acid, 89.9% Acetonitrile, 10% Methanol) at 0.25 mL/min, 100 bar, 37° C. column temperature, method 406975M1, Sequence 1029-08A, Agilent 1100 LC-MS.
All samples were run in duplicate, 210 nm and 230 nm Absorbances, Negative and Positive ionization spectrograms recorded.
Step 1. Plasma from “Vehicle” animals (pooled), 0.095 mL, was mixed with 0.005 mL 20× stock of Compound EB in Methanol to make 500 microM, 250 microM, 125 microM, . . . , concentrations of Compound EB in plasma.
For example: 95 microL plasma+5 microL of 10 mM Compound EB in methanol=0.1 mL plasma with 500 microM Compound EB.
Step 2. Samples from step 1 were vortexed for 10 sec at top speed.
Step 3. 0.2 mL of acetonitrile was added to all samples from Step 2, and all vials were vortexed at top speed for 1 min.
Step 4. All samples from step 3 were spun down 14000 rpm, 17000 g, at 4° C., for 25 min.
Step 5. Supernatants were filtered through 0.45 micron, 4 mm, PTFE membrane syringe filter (Phenomenex # AF0-3102-52), 13 microL were injected and resolved on Luna 3 micron, 100 A pore, C8(2), 150×3 mm, reverse phase column

Detection in mouse plasma (in words) (LC-MS): readily detected
Compound EB concentr. in plasma, individual animals (male mice, bleed time 0 HR): 0 µg/mL
Compound EB concentr. in plasma, individual animals (male mice, bleed time 0.5 HR): 207.5 µg/mL and 134.2 µg/mL
Compound EB concentr. in plasma, individual animals (male mice, bleed time 1 HR): 139.7 µg/mL and 157.6 µg/mL
Compound EB concentr. in plasma, individual animals (male mice, bleed time 4 HR): 74.9 µg/mL and 92.1 µg/mL and 39.6 µg/mL
Compound EB concentr. in plasma, individual animals (male mice, bleed time 6 HR): 79.9 µg/mL and 48 µg/mL
Compound EB concentr. in plasma, individual animals (male mice, bleed time 8 HR): 18.2 µg/mL and 10.7 µg/mL and 0 µg/mL
Compound EB concentr. in plasma, individual animals (male mice, bleed time 24 HR): 0 µg/mL
AUC0-24 (male mice, plasma): AUC0-24: 796 μg/mL
concentration at 0 h (male, mouse, plasma, po, 100 mg/kg, male mice, 0 hr, read-out: Compound EB concentration in plasma, average): 0 ng/mL
concentration at 0.5 h (male, mouse, plasma, po, 100 mg/kg, male mice, 0.5 hr, read-out: Compound EB concentration in plasma, average): 183 µg/mL
concentration at 1 h (male, mouse, plasma, po, 100 mg/kg, male mice, 1 hr, read-out: Compound EB concentration in plasma, average): 169 µg/mL
concentration at 2 h (male, mouse, plasma, po, 100 mg/kg, male mice, 2 hr): 137 µg/mL
concentration at 4 h (male, mouse, plasma, po, 100 mg/kg, male mice, 4 hr): 69 µg/mL
concentration at 6 h (male, mouse, plasma, po, 100 mg/kg, male mice, 6 hr, read-out: Compound EB concentration in plasma, average): 62 µg/mL
concentration at 8 h (male, mouse, plasma, po, 100 mg/kg, male mice, 8 hr): 10 µg/mL
concentration at 24 h (male, mouse, plasma, po, 100 mg/kg, male mice, 24 hr, read-out: Compound EB concentration in plasma, average): 3 µg/mL
concentration at 0 h (male, mouse, plasma, po, 100 mg/kg, male mice, bleed time 0 HR, read-out: Compound EB concentr. in plasma, individual animals): 0 ng/mL
concentration at 0.5 h (male, mouse, plasma, po, 100 mg/kg, male mice, bleed time 0.5 HR, read-out: Compound EB concentr. in plasma, individual animals): 206 µg/mL
concentration at 1 h (male, mouse, plasma, po, 100 mg/kg, male mice, bleed time 1 HR, read-out: Compound EB concentr. in plasma, individual animals): 210 µg/mL
concentration at 6 h (male, mouse, plasma, po, 100 mg/kg, male mice, bleed time 6 HR, read-out: Compound EB concentr. in plasma, individual animals): 58.7 µg/mL
concentration at 24 h (male, mouse, plasma, po, 100 mg/kg, male mice, bleed time 24 HR, read-out: Compound EB concentr. in plasma, individual animals): 0 µg/mL
Cmax (mouse, male mice, plasma): 210 µg/mL
Structure (SMILES): Cc1cccc(C)c1COc1cccc(-c2nnn[nH]2)c1 [Compound EB, 5-(3-(2,6-Dimethylbenzyloxy)phenyl)-1H-tetrazole]
Compound EB concentr. in plasma, individual animals (male mice, bleed time 2 HR): 139.9 µg/mL and 187.6 µg/mL and 82.4 µg/mL
